We go through six molecules from patent US20050202508A1, “Biomarker for Parkinson's disease” (priority 2003, published 2005).

The subject of data set [1] is PD patients. The following applies: cited from earlier work.
Data set [2] concerns PIF mRNA. As to the kind of experiment: PIF mRNA expression after MPP+ treatment, northern blot. Conditions: MPP+ treatment 12 hr, enriched rat DAergic neuron cultures, FIG. 12A. The data set is classed as cell-based. The source says:
(§1) The exact molecular mechanisms leading to the pathophysiology of PD are not well understood. MPP^+, a mitochondrial complex I inhibitor, produces PD-type symptoms in humans and laboratory animals and has been used to investigate PD pathogenesis^12,13. MPP^+, the ultimate metabolite of MPTP, is taken up into DAergic neurons where it accumulates in mitochondria and works to inhibit complex I activity. Although the mechanism of MPP^+-induced neurotoxicity is not fully understood, there is increasing evidence supporting the involvement of reactive oxygen species (ROS)^14. […]
(§2) For these studies enriched mesecephalic DAergic cultures were obtained from E16 Sprague Dawley embryos and cultured for 10 days in poly 1-ornithine coated culture dish at a density of 0.5×10^6 cells per well and maintained in Neurobasal medium with B-27 supplement and 0.5 mM glutamine, as previously described^16. In A, following MPP^+ treatment for 12 hr, total RNA was extracted from the neuronal cultures using Ultraspec RNA (Biotecx) and PIF mRNA expression assessed by northern blot hybridization assay using ^32p labeled hPIF cDNA^17 and quantified by phospho-imaging (Molecular Dynamics). […] Non-specific transport was determined in parallel assays conducted in the presence of 1 uM GBR12909 and incorporated [^3H]-dopamine was extracted with NaOH (0.5M) and quantified by liquid scintillation spectrometry

The subject of data set [3] is substantia nigra DAergic neurons. The data set is classed as in vivo, mouse.
Protocol: In this study SN DAergic lesions in male C57B6/SJ mice were obtained by i.p. MPTP injection (four consecutive injections at 2 hr intervals; 20 mg/kg/body weight (BW) per injection 27); saline injected mice were used as a control (n=4 per group). Four days following MPTP (or saline) injection, mice were anesthetized using a combination of ketamine (50 mg/kg BW) and xylazine (5 mg/kg BW), CSF was then collected from cisterna magna, as previously described^28. Immediately after CSF collection (4 days post-lesioning), mice were sacrificed by cervical dislocation and the brain was collected, preserved under cryoprotection and stored at −80° C. 1 μl of CSF from each animal was analyzed by SELDI technology as described in FIG. 1. […] In panel 3B, number of thyroxine hydroxylase (TH)-immunoreactive DAergic neurons in the SN counted stereologically, with data are expressed as mean+SEM for MPTP and saline groups. In panels A and B, n=4 per group; *P<0.05.
For data set [4], the system named is substantia nigra. As to the kind of experiment: In vivo MRM T2-weighted imaging of substantia nigra after MPTP lesion. Also on record: species or system mouse. The source says: The goal of this study was to develop a non-invasive methodology for functionally assessing the predicative role of novel protein biomarkers in CSF (and serum) for experimental MPTP SN neurodegeneration in pre-clinical models of PD (Aim 4) using MRM imaging technology in collaboration with Dr. Cheuk Tang (Collaborator, Imaging Sciences Laboratory, Dept. Neuroradiology) and Dr. Patrick Hof (Collaborator, Advance Imaging Program, Center for Neurobiology), of Mount Sinai Medical School. The studies are based on the principle that increased iron content found in SN of PD and MPTP models of PD^29-31 may be an index of SN neurodegeneration, which can be monitored by MRM^32,33, longitudinally. Given that MRM measurement is highly sensitive to iron content in SN dopaminergic cells, we hypothesized that MRM may offer a means for non-invasive evaluation of SN neurodegeneration. In exciting ongoing studies, using a 9.4 Tesla micro MRM imager (Bruker Instrument) we collected matched consecutive rostro-caudal T2-weighted in vivo MRM images of the whole brain from the same mouse, prior to and four-days after SN MPTP lesion. […] As predicted, this observation of hypo-intense MRM measurements in the SN post-lesioning is consistent with an elevation in iron content in the degenerating nigrostriatal DAergic neurons. […]

In data set [5] the test system is SY5Y neuroblastoma catecholaminergic cells. In words: MPP+ toxicity in SY5Y cells, MTT assay. The following applies: 24 hr after exposure to MPP+; dose dependent; FIG. 9. It is filed as cell-based. As to the method:
The PD biomarker DCD-1 promotes neurotoxicity in SY5Y cells in a dose dependent manner. In this study cell toxicity in SY5Y cells was assessed 24 hr after exposure to MPP+ using methylthiazoletetrazolium [3 (4,5-dimethylthiazol-2-yl)-2,5-diphenyltetrazolium bromide] (MTT) calorimetric assay, (an index or altered energy metabolism). Values represent Means+SEM of determinations from 2 separate cultures, n=3 cultures chambers per group * P<0.05 between MPP+ and MPP+ and DCD-1 treatment (see FIG. 9).

Data set [6] deals with PIF cell surface receptor (DCD receptor) (human). As to the kind of experiment: Scatchard analysis of AP-PIF binding to human SH-SY5Y neuronal cells.
The test system of data set [7] is rat mesencephalic DAergic neuron cultures. In words: MPP+-mediated neurotoxicity in enriched rat mesencephalic DAergic neuron cultures, [3H]-dopamine uptake assay. The data set is classed as cell-based.
From the text: as §1, §2

The subject of data set [8] is α-synuclein. As to the kind of experiment: alpha-synuclein immunoblot in enriched DAergic neuron cultures after hrPIF treatment. The data set is classed as cell-based, rat. The source says:
Because of the recent evidence showing increased α-synuclein expression increases vulnerability to MPP/MPTP^19, we decided to explore the possibility that PIF might have promoted DAergic neurodgeneration through mechanisms that involve α-synuclein expression. […] This evidence is also consistent with work in Drosophila where overexpression of α-synuclein leads to DAergic toxicity^22. In these studies (see FIG. 13) 10 days old enriched […] cultures were obtained as discussed in FIG. 12. In A, following treatment with increasing concentrations of hrPIF, cultures lysed in each well using SDS-PAGE (5 mM Tris-HCl, 2% SDS, 0.1 M DTT, 0.001% Bromphenol blue, 10% glycerol, pH6.8) sample buffer. […] After 5 min incubation at RT in buffer, the Triton X-100 soluble fraction was gently collected from the-dish-. -The remaining Triton-insoluble material was gently rinsed once with ice cold PBS, and collected in buffer N (0.1 M Na2CO3, pH 11.5 with protease inhibitor cocktails). In C, the Triton-insoluble synuclein fraction was collected in the pellet by centrifugation at 16,000 g for 10 min and dissolved in 1×SDS buffer. Immunoblots used monoclonal anti α-synuclein antibody (1:1000, BD Bioscience) and immunoreactivities were visualized densitometrically.
(In western blotting, separated proteins are transferred to a membrane and probed.)

For the molecule `N[C@@H](Cc1ccc(O)c(O)c1)C(=O)O` [L-dopa], the “extension of lifespan of PD patients, on average” value in data set [1] is “one”.
As to `C[n+]1ccc(-c2ccccc2)cc1` [MPP^+, 1-Methyl-4-phenylpyridinium ion], the “PIF mRNA expression” value in data set [2] was “dose dependently induced”.
`CN1CC=C(c2ccccc2)CC1` [MPTP]: the “loss of tyrosine hydroxylase (TH) immunopositive neurons” value in data set [3] (MPTP i.p. 4 x 20 mg/kg, 4 days post-lesioning, stereological count) is on record as “approximately 25%”. For the same molecule, the “4.6 kDa anionic DCD-like protein in CSF” value in data set [3] (mouse, in vivo) is listed as “induced”. In addition, in data set [4] (after MPTP lesion, n=2, 9.4 Tesla MRM), the “decrease in SN T2 density / T2-weighted values vs pre-lesion” value is listed as “approximately 25%”. In addition, in data set [4] (post-MPTP lesioning, N=2 animals), the “average normalized SN T2 density (SN T2 density/temporal T2 density)” value is recorded as 0.6904 ± 0.05.
Regarding “DCD-1: human recombinant DCD-1, aa 63-109 of dermcidin precursor, 4.7 kDa (SEQ ID NO:1) (SSLLEKGLDGAKKAVGGLGKLGKDAVEDLESVGKGAVHDVKDVLDSV; homo sapiens)”, in data set [5], the “effect on MPP+ mediated death (MTT)” value is “potentiates MPP+ mediated death”.
In data set [6], “N-terminal alkaline phosphatase (AP) C-terminal PIF (DCD) precursor protein fusion protein (from UniProt P81605 20-110) (ligand)” showed a Kd of 51 nM and a maximum binding concentration (receptors per cell) (PIF receptors per cell) of 30000.

B1: hrPIF: human recombinant full length dermicidin, His-tagged, expressed in M15 bacterial cells (protein)
chain: YDPEAASAPGSGNPCHEASAAQKENAGEDPGLARQAPKPRKQRSSLLEKGLDGAKKAVGGLGKLGKDAVEDLESVGKGAVHDVKDVLDSVL
modifications: left off: small tags and cut ends
notes: human recombinant full length dermicidin, His-tagged, expressed in M15 bacterial cells
For B1, the “potentiation of MPP+-mediated neurotoxicity, dopamine uptake assay” value in data set [7] (exogenous hrPIF with MPP+, 12 hours, FIG. 12B) is on record as around 1.5 fold. Besides, in data set [7] (exogenous hrPIF, rat mesencephalic DAergic neuron cultures, summary statement), the “potentiation of MPP+-induced neurotoxicity” value was around 2 fold. In addition, the “soluble oligomeric α-synuclein protofibrils” value in data set [8] (Triton X-100 soluble fraction, FIG. 13B) is “accumulation”. Besides, the “aggregated α-synuclein” value in data set [8] (Triton-insoluble fraction, FIG. 13C) is listed as “not aggregated α-synuclein”. Moreover, the “expression of total α-synuclein” value in data set [8] (hrPIF treatment, FIG. 13A) was “increased expression”.

In general, Kd refers to the free concentration of one partner at which half of the binding sites on the other are occupied at equilibrium, for simple one-to-one binding. The low end stands for higher affinity, the high end for lower affinity.
